Reference: article PMC8476755 (Frontiers in Chemistry, 2021)
Where two headings read alike, the source gives them in different places.

Target: T1, GAT3 L314Q (Homo sapiens, UniProt P48066, L314Q)
T1 construct: expressed in transfected cells; host or cells: tsA201 (transformed HEK293), transient
T1 sequence (P48066 1-632 L314Q): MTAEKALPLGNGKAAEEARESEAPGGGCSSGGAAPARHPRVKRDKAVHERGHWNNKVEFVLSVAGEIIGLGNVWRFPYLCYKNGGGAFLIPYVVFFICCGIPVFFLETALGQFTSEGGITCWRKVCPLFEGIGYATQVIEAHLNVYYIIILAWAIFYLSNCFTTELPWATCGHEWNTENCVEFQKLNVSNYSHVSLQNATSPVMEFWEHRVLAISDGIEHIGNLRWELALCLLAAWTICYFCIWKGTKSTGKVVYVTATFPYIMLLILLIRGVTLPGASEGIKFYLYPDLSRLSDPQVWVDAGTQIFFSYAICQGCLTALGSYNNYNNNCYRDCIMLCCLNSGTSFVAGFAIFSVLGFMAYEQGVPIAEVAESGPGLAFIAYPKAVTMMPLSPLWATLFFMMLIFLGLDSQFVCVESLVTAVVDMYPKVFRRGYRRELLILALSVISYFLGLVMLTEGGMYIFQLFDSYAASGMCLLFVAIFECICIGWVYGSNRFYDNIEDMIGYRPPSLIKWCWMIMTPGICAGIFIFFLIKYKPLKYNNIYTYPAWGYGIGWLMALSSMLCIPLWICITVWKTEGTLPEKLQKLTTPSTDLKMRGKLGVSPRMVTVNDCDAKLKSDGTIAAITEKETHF
Assay: [3H]GABA uptake assay, transient expression in tsA201 cells
Format: cell-based
Conditions: for Increase in inhibitory activity relative to wt: GAT3 L314Q vs GAT3 wt; for IC50: GAT3 L314Q, tsA201 cells
Source text: According to the docking and MD results, the sidechains of Q299 and E52 were identified to form crucial interactions with the protonated nitrogen of both compounds. The residue Q299 in human BGT1 corresponds to leucine in all other GATs (human, rat, mouse), while E52 corresponds to tyrosine in GAT1 (human, rat, mouse) but is conserved among GAT2, GAT3 and BGT1 (human, rat, mouse) (Figure 6A) ([Kickinger et al., 2019]). Thus, we engineered the corresponding mutants Q299L and E52Y in human BGT1 and predicted that the introduction of these mutations would lead to decreased activity of both bicyclo-GABA and 2 due to the loss of essential hydrogen bond interactions. Furthermore, we wanted to test the double mutant E52Y + Q299L. However, in a previous study this mutant was proven non-functional ([Kickinger et al., 2020]). Instead, we generated the double mutant E52A + Q299L as well as the single mutant E52A. For these mutants we predicted decreased activity. Lastly, the reciprocal mutation to BGT1 Q299L was created in GAT3 (L314Q), ideally expecting a gain-of-function.
FIGURE 6 (A) Pocket alignment of the orthosteric site of the four GAT subtypes colored according to the default ClustalX color scheme ([Larkin et al., 2007]). The pocket was defined as all corresponding GAT residues (15 in total) that are within a distance of 4.5 Å of the co-crystallized ligand leucine in the homologous LeuT crystal structure (PDB ID 2A65) ([Yamashita et al., 2005]) according to the alignment by Kickinger et al. ([Kickinger et al., 2019]). The mutated residues in BGT1 and the corresponding residues in GAT1-3 are indicated by a red box. The numbering of all residues within the orthosteric pocket can be found in the Supplementary Table S1.
The tsA201 cell line (a transformed HEK293 cell line), the Flp-In CHO cell lines stably expressing human (h) GATs and the HEK293 cell line stably expressing human α1β2γ2 GABAA receptors have been described previously and were cultured accordingly ([Al-Khawaja et al., 2014]; [Falk-Petersen et al., 2020]). The tsA201 cell line used for transient expression of hGATs was transfected with DNA constructs (8 μg per 10 cm plate) using 40 μL PolyFect transfection reagent according to the manufacturer’s protocol (Qiagen). All DNA constructs used have been described previously: wt hBGT1, wt GAT3 ([Kvist et al., 2009]), BGT1 Q299, GAT3 L314Q ([Jørgensen et al., 2017]), hBGT E52Y, BGT1 E52A and BGT1 E52A + Q299L ([Kickinger et al., 2020]).
Briefly, cells were seeded in white 96-well plates (White Opaque Tissue Culture (TC) plated 96-well Microplate) pre-coated with PDL. Medium was removed on the following day and cells washed with 100 µL/well assay buffer (HBSS supplemented with 20 mM HEPES, 1 mM CaCl2 and 1 mM MgCl2, pH 7.4). […] The cells were washed 3 times with 100 µL/well ice-cold assay buffer, 150 µL/well MicroScint™20 was subsequently added before the plate was shaken for at least 1 h. The plate was counted in a Packard TopCounter microplate scintillation counter (PerkinElmer) for 3 min per well. Typical counts per minute for the different GATs were in the range of: wt hBGT1 (100–4,000), BGT1 Q299 (100–1,000), hBGT E52Y (150–500), BGT1 E52A (150–8,000), BGT1 E52A + Q299L (150–500), wt GAT3 (200–8,000), GAT3 L314Q (100–1,500), wt GAT1 (100–10,000) and wt GAT2 (150–7,500). […] Data presented is the pooled data of at least three independent experiments with three technical replicates if not stated otherwise in figure legends. Concentration–response curves were fitted by non-linear regression to the sigmoidal concentration-response model with GraphPad Prism (version 9.0.0, GraphPad Software, San Diego, CA, United States) as described ([Lie et al., 2020]).

Compound	Increase in inhibitory activity relative to wt	IC50 (read-out: IC50) [µM]	IC50 (read-out: pIC50 ± S.E.M. (converted)) [µM]
CN[C@@]12CC[C@H](C(=O)O)[C@@H]1C2 [compound 2]	not increased	291	–
N[C@@]12CC[C@H](C(=O)O)[C@@H]1C2 [bicyclo-GABA, (1S,2S,5R)-5-aminobicyclo[3.1.0]hexane-2-carboxylic acid]	38 times	16	12.6
